# Reference: publication PMC8285493 (Nature Communications, 2021)
# Tests used:
# Test in all cases: biochemical
# Set-up in all cases: PDE enzyme inhibition, 3H-cAMP / 3H-cGMP scintillation proximity assay
# [1] = biological target: T1, PDE9A (Homo sapiens, UniProt O76083)
# T1 construct: full-length, Sf9 cell-free extract
# Procedure: (§1) PDE activity assays were performed as previously described. Briefly, cell-free extracts were prepared from Sf9 insect cells recombinantly expressing full-length human PDEs (PDE2A, 3A, 3B, 4B, 7B, 8A, 9A, 10A, 11A). PDE5 was purified from human platelets by homogenization (Microfluidizer, 800 bar, 3 passages), centrifugation (75,000 × g, 60 min, 4 °C), and ion exchange chromatography of the supernatant on a Mono Q 10/10 column (linear NaCl gradient, eluted with 0.2–0.3 M NaCl in a buffer containing 20 mM Hepes pH 7.2 and 2 mM MgCl2). Fractions containing PDE5 activity were pooled and stored at −80 °C. PDE6 was purified from rod outer segments of bovine retinae by Dr. Körschen, Forschungszentrum Jülich, Germany[34]. Bovine PDE1 was purchased from Sigma-Aldrich (P9529, Taufkirchen, Germany). Enzyme inhibition studies were carried out using the commercially available 3H-cAMP and 3H-cGMP Scintillation Proximity Assay (SPA) systems (RPNQ0150, Perkin-Elmer, Rodgau, Germany).
# [2] = biological target: T2, PDE2A (Homo sapiens, UniProt O00408)
# T2 construct: full-length, Sf9 cell-free extract
# Procedure: as §1
# [3] = biological target: T3, PDE11A (Homo sapiens, UniProt Q9HCR9)
# T3 construct: full-length, Sf9 cell-free extract
# Procedure: as §1
# [4] = biological target: T4, PDE6 (Bos taurus, UniProt P11541+P23439)
# T4 construct: gene PDE6A; native, purified from rod outer segments of bovine retinae
# T4 sequence (P11541 1-859): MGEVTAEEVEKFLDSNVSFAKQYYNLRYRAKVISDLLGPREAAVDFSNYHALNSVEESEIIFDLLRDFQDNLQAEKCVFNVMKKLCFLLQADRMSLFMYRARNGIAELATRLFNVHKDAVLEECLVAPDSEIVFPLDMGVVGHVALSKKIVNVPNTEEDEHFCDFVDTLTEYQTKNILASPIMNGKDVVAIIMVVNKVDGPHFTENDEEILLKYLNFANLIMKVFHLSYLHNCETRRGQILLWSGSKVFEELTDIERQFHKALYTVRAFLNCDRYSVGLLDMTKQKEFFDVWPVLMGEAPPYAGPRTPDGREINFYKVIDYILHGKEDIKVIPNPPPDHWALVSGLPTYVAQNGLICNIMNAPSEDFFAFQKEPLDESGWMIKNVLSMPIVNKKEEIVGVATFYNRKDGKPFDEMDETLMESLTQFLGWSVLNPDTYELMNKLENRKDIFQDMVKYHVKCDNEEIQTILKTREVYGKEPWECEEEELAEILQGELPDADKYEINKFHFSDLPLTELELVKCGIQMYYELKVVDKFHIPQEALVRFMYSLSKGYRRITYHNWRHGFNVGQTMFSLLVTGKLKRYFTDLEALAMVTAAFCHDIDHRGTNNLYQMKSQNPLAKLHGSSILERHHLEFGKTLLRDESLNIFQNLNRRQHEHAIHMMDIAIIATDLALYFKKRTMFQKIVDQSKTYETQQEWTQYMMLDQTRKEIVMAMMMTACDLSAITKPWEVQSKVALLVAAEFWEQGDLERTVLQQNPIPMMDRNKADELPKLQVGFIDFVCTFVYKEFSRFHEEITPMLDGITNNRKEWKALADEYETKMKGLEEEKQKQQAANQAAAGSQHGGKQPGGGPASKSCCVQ
# T4 sequence (P23439 1-853): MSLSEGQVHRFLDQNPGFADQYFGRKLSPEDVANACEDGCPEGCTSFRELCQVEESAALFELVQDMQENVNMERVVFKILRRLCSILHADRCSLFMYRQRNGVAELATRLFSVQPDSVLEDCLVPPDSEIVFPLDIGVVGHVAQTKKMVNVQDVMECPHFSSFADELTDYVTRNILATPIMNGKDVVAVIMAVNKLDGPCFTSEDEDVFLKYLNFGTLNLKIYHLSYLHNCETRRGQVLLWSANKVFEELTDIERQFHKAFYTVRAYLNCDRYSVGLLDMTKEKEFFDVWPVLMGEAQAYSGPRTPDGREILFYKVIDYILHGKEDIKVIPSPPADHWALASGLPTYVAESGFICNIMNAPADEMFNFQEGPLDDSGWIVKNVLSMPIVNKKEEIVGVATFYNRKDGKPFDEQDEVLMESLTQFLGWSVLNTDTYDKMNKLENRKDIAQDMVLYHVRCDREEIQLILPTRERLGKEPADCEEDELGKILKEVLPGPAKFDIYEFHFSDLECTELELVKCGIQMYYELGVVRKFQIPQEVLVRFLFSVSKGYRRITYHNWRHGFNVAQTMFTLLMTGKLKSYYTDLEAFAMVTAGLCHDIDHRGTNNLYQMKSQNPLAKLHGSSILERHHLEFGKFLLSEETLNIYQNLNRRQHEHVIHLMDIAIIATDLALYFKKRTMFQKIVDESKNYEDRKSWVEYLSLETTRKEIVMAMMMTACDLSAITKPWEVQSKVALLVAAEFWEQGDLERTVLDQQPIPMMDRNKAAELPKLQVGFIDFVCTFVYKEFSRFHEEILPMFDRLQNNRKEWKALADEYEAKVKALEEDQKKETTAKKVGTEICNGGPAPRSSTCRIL
# Procedure: as §1
# [5] = biological target: T5, PDE5 (Homo sapiens, UniProt O76074)
# T5 construct: gene PDE5A; native, purified from human platelets
# Procedure: as §1
# [6] = biological target: T6, PDE3B (Homo sapiens, UniProt Q13370)
# T6 construct: full-length human PDE3B, Sf9 cell-free extract
# Procedure: as §1
# [7] = biological target: T7, PDE7B (Homo sapiens, UniProt Q9NP56)
# T7 construct: full-length, Sf9 cell-free extract
# Procedure: as §1
# [8] = biological target: T8, PDE10A (Homo sapiens, UniProt Q9Y233)
# T8 construct: full-length, Sf9 cell-free extract
# Procedure: as §1
# [9] = biological target: T9, PDE8A (Homo sapiens, UniProt O60658)
# T9 construct: full-length, Sf9 cell-free extract
# Procedure: as §1
# [10] = biological target: T10, PDE3A (Homo sapiens, UniProt Q14432)
# T10 construct: full-length, Sf9 cell-free extract
# Procedure: as §1
# T10 sequence (Q14432 whole entry): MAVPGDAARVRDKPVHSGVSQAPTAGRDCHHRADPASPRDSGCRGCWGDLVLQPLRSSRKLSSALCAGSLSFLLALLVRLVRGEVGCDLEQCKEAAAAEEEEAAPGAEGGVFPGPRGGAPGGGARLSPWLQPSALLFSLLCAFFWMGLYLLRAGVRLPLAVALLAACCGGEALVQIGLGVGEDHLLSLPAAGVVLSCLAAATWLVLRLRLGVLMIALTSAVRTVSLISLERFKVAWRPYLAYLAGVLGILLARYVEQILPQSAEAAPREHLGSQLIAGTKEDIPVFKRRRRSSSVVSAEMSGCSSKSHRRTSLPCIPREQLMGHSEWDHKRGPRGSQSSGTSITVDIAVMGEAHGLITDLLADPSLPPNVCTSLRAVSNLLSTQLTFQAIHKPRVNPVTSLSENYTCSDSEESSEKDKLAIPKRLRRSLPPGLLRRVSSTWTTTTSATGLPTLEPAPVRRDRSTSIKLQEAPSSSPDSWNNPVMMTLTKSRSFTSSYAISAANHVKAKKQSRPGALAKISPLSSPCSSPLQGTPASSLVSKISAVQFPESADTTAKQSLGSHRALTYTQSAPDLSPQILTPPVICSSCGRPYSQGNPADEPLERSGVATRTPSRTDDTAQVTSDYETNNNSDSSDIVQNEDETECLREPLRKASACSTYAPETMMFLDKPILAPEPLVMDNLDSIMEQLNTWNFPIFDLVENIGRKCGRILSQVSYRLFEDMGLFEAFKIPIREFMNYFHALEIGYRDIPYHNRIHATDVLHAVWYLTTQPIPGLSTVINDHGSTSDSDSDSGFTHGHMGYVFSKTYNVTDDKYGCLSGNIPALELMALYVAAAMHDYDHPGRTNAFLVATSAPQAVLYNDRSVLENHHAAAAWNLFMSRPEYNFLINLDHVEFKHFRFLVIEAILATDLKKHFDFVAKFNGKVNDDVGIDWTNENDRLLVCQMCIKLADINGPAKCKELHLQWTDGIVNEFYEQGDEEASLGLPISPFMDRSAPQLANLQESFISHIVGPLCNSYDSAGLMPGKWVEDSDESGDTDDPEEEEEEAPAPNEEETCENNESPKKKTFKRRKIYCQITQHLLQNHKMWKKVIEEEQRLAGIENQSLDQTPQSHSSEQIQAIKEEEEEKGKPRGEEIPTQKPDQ
# T9 sequence (O60658 whole entry): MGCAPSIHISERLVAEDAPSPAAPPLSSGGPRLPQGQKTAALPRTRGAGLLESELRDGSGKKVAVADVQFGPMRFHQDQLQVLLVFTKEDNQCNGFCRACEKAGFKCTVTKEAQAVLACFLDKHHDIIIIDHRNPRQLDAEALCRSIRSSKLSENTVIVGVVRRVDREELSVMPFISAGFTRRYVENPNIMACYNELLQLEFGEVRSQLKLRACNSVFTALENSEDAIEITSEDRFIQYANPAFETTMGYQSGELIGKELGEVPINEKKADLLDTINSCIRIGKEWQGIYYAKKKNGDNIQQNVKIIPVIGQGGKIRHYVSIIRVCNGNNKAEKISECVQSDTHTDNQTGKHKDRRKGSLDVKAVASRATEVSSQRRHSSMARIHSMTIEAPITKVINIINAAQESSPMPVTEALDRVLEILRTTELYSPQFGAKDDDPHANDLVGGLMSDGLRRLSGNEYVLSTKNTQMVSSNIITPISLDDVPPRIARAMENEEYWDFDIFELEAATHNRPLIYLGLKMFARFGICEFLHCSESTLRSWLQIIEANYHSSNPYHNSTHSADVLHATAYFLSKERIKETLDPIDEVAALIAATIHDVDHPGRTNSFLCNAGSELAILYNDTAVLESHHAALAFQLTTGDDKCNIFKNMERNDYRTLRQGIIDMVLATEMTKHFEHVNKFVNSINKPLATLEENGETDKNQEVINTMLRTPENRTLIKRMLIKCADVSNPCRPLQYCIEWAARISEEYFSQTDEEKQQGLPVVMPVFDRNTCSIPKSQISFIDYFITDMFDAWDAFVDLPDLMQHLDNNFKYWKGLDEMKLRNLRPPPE
# T7 sequence (Q9NP56 whole entry): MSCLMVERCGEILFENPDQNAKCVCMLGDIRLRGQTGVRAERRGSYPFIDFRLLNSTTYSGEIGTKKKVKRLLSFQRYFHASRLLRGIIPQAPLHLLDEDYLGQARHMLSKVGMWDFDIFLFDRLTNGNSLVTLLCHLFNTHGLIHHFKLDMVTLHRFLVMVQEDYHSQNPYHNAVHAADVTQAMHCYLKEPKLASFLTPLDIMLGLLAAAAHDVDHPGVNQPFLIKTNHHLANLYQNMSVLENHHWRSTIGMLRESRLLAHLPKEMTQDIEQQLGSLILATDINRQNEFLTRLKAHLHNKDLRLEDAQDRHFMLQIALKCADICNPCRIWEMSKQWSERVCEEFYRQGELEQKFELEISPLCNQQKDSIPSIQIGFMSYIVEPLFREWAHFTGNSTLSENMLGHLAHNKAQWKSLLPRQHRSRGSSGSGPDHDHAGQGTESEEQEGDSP
# T6 sequence (Q13370 whole entry): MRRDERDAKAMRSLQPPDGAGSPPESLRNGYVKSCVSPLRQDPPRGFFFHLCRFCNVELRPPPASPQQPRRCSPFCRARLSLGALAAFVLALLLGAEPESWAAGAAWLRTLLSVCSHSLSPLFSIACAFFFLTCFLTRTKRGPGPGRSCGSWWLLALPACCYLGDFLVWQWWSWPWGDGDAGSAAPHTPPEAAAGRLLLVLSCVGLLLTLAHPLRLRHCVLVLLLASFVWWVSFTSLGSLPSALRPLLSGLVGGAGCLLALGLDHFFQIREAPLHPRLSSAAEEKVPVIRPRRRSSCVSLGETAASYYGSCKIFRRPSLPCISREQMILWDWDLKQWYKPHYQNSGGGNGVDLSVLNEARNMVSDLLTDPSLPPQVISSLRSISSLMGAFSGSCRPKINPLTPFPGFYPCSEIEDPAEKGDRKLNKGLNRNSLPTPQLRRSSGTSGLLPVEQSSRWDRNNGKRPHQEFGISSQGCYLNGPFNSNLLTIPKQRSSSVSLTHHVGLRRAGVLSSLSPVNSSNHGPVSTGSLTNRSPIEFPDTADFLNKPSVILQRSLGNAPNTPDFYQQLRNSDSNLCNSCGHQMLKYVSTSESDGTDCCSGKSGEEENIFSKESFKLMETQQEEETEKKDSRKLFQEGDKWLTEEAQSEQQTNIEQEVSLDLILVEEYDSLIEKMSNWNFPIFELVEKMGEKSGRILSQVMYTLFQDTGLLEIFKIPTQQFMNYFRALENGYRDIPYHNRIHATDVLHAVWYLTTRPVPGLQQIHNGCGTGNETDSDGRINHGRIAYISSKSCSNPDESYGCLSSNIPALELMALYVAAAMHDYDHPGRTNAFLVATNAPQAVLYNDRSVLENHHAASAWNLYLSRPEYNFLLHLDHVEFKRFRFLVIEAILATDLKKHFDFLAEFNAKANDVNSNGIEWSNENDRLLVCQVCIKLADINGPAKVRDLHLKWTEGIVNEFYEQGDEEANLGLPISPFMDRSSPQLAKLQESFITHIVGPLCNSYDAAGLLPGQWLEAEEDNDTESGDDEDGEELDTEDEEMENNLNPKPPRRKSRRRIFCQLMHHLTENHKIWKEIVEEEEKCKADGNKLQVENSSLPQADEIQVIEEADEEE
# T1 sequence (O76083 whole entry): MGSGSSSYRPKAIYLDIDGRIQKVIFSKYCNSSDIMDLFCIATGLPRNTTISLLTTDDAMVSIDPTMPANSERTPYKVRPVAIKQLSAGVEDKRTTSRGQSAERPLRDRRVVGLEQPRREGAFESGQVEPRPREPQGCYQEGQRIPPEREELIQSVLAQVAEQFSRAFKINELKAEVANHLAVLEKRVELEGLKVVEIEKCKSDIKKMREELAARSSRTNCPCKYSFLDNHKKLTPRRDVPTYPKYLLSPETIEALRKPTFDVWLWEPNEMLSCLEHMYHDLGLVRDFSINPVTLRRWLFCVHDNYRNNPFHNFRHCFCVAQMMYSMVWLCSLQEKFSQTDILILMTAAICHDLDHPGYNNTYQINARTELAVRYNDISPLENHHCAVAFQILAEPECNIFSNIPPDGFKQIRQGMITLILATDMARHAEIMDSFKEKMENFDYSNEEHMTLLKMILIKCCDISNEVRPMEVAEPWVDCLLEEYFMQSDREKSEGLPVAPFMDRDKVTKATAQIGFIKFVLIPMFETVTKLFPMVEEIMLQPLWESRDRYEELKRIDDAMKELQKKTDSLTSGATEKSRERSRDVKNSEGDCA
# T2 sequence (O00408 whole entry): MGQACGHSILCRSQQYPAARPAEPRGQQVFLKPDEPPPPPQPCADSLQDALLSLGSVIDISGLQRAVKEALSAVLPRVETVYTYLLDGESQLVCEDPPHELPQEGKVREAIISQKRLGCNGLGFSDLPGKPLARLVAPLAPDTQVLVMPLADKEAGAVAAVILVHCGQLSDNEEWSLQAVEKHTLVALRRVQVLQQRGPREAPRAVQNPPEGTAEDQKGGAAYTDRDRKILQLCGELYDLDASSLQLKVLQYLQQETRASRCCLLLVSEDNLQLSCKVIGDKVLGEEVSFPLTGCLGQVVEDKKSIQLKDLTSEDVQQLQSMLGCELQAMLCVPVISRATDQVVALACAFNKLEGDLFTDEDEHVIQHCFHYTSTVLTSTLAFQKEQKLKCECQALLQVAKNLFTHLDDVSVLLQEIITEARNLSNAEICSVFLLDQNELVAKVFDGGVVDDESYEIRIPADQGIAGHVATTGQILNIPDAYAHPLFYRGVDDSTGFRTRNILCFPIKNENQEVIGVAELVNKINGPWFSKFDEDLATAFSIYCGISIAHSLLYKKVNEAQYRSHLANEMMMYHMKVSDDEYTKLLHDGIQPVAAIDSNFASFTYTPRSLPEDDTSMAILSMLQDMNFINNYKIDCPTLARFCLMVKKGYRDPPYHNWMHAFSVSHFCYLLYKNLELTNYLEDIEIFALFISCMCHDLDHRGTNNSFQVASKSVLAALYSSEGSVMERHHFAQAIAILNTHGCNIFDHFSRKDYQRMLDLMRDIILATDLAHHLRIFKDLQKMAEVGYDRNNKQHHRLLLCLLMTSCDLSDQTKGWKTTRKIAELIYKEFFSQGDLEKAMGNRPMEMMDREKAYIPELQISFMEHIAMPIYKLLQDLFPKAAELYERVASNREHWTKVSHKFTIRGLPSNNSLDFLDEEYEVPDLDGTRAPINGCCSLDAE
smiles,measurement,setting,value
COc1cc2c(cc1OC)-c1c/c(=N\c3c(C)cc(C)cc3C)n(C)c(=O)n1CC2 [trequinsin],IC50,[1],> 10000 nM
same,IC50,[2],785 nM
same,IC50,[3],1000 nM
same,IC50,[4],1200 nM
same,IC50,[5],870 nM
same,IC50,[6],0.05 nM
same,IC50,[7],> 10000 nM
same,IC50,[8],49.8 nM
same,IC50,[9],8000 nM
same,IC50,[10],0.023 nM
